Results as given in US20240415825A1, “COMPOUNDS FOR THE TREATMENT OF MALARIA” (FUNDACIÓ INSTITUT DE BIOENGINYERIA DE CATALUNYA, priority 2021, published 2024).
pIC50: −log10 of the molar value. Where two headings read alike, the source gives them in different places.

System: P. falciparum 3D7 strain
Experiment: P. falciparum growth inhibition assay (3D7 strain)
Assay type: cell-based, Plasmodium falciparum
Details: 3D7 strain; for pIC50: Plasmodium falciparum, Example 8, read-out: IC50 in 3D7 strain
Protocol: After the synchronization process, a new culture at 1.5% parasitemia and 2% hematocrit was established and 150 μL aliquots of it were transferred to 96-well plates.
The required amounts of peptides, antimalarial compounds and dyes were added in each well at different concentrations and in triplicates. A positive growth control of untreated parasites and a negative growth control of parasites treated with a lethal dose of chloroquine (1 μM) were also included.
Parasites were grown for 48 h, a complete replication cycle, in standard culturing conditions (5% O2, 5% CO2, and 90% N2 at 37° C.). After the incubation period, 3 μL of culture from each well were mixed with 197 μL of PBS containing 0.1 μM Syto 11 (Thermo Fisher Scientific Inc), to obtain a final concentration of ca. 1-10×10^6 cells/ml.
Parasitemia was assessed by flow cytometry using a LSRFortessa flow cytometer (BD Biosciences, San Jose, CA, USA) set up with the 4 lasers, 20 parameters standard configuration. The single-cell population was selected on a forward-side scatter scattergram.
Growth inhibition was calculated taking as reference values both the growth rate of the untreated culture and the growth rate of the culture treated with chloroquine.

Structure (SMILES)	antimalarial / antiplasmodial activity in vitro	IC50 (48 h, Table 2, read-out: IC50 in 3D7 strain (μM) ± SEM) [µM]	pIC50
Nc1c(/N=N/c2ccc(-c3ccc(/N=N/c4cc(S(=O)(=O)[O-])c5ccccc5c4N)cc3)cc2)cc(S(=O)(=O)[O-])c2ccccc12.[Na+].[Na+] [Congo Red, reference compound]	did not exhibit significant antiplasmodial activity	> 15	–
Cc1c[n+](CCCCCCCCCC[n+]2ccc(/C=C/c3ccc(N(C)C)cc3)c(C)c2)ccc1/C=C/c1ccc(N(C)C)cc1.[Br-].[Br-] [EMA357, 1,1′-(decane-1,10-diyl)bis{4-[(E)-4-(dimethylamino)styryl]-3-methylpyridin-1-ium} dibromide]	potent antimalarial activity	–	6.92
Cc1c[n+](CCCCCCCCCC[n+]2ccc(/C=C/c3ccc(N(C)CCC#N)cc3)c(C)c2)ccc1/C=C/c1ccc(N(C)CCC#N)cc1.[Br-].[Br-] [EMA359, 1,1′-(decane-1,10-diyl)bis{4-{(E)-4-[(2-cyanoethyl)methylamino]styryl}-3-methylpyridin-1-ium} dibromide]	potent antimalarial activity	–	6.96
Cc1c[n+](CCCCCCCCCC[n+]2ccc(/C=C/c3ccc(N(c4ccccc4)c4ccccc4)cc3)c(C)c2)ccc1/C=C/c1ccc(N(c2ccccc2)c2ccccc2)cc1 [EMA366, 1,1′-(decane-1,10-diyl)bis{4-[(E)-4-(diphenylamino)styryl]-3-methylpyridin-1-ium} dibromide]	–	–	6.28
Cc1c[n+](CCCCCCCCCC[n+]2ccc(/C=C/c3ccc(N4CCCC4)cc3)c(C)c2)ccc1/C=C/c1ccc(N2CCCC2)cc1 [EMA368, 1,1′-(decane-1,10-diyl)bis{3-methyl-4-[(E)-4-(pyrrolidin-1-yl)styryl]pyridin-1-ium} dibromide]	–	–	6.54
Cc1c[n+](CCCCCCCCCC[n+]2ccc(/C=C/c3ccc(N4CCOCC4)cc3)c(C)c2)ccc1/C=C/c1ccc(N2CCOCC2)cc1.[Br-].[Br-] [EMA377, 1,1′-(decane-1,10-diyl)bis{3-methyl-4-[(E)-4-morpholinostyryl]pyridin-1-ium} dibromide]	potent antimalarial activity	–	7.22
CCN(CC)c1ccc(/C=C/c2cc[n+](CCCC[n+]3ccc(/C=C/c4ccc(N(CC)CC)cc4)c(C)c3)cc2C)cc1 [PRC-5, 1,1′-(butane-1,4-diyl)bis{4-[(E)-4-(diethylamino)styryl]-3-methylpyridin-1-ium} dibromide]	–	–	6.38
CCN(CC)c1ccc(/C=C/c2cc[n+](CCCCCCCC[n+]3ccc(/C=C/c4ccc(N(CC)CC)cc4)c(C)c3)cc2C)cc1.[Br-].[Br-] [PRC-8, 1,1′-(octane-1,8-diyl)bis{4-[(E)-4-(diethylamino)styryl]-3-methylpyridin-1-ium} dibromide]	potent antimalarial activity	–	6.85
CCN(CC)c1ccc(/C=C/c2cc[n+](CCCCCCCCCCC[n+]3ccc(/C=C/c4ccc(N(CC)CC)cc4)c(C)c3)cc2C)cc1.[Br-].[Br-] [PRC-14, 1,1′-(undecane-1,11-diyl)bis{4-[(E)-4-(diethylamino)styryl]-3-methylpyridin-1-ium} dibromide]	potent antimalarial activity	–	7.22
CCN(CC)c1ccc(/C=C/c2cc[n+](CCCCCCCCCCCC[n+]3ccc(/C=C/c4ccc(N(CC)CC)cc4)c(C)c3)cc2C)cc1.[Br-].[Br-] [PRC-15, 1,1′-(dodecane-1,12-diyl)bis{4-[(E)-4-(diethylamino)styryl]-3-methylpyridin-1-ium} dibromide]	potent antimalarial activity	–	7.22
CCN(CC)c1ccc(/C=C/c2cc[n+](CCOCCOCC[n+]3ccc(/C=C/c4ccc(N(CC)CC)cc4)c(C)c3)cc2C)cc1 [PRC-20, 1,1′-(3,6-dioxaoctane-1,8-diyl)bis{4-[(E)-4-(diethylamino)styryl]-3-methylpyridin-1-ium} diiodide]	–	–	6.70
